Source: US7429238B2, “Systems and methods for the generation of crystalline polymorphs” (priority 2001, dated 2008)

Assays:
[1] = cited from earlier work
[2] = following a single oral dose, average; cited from earlier work
[3] = rat, in vivo; cited from earlier work
[4] = room temperature; cited from earlier work
[5] = Infrared of single crystals versus KBr pellets (phase transformation under pressure); type: physicochemical; details: KBr pellets produced at 10,000 psi vs infrared microscopy of single crystals
Description: The corresponding peaks in the new polymorph are found at 3474, 3149, 1674, 1394, 773, and 765 cm^−1. […] Significant differences in the IR spectra of two different polymorphs provide a fast, reliable method of polymorph characterization despite the fact that a hydrogen-bonded dimer is observed in the crystal structure of both polymorphs. […] Therefore, it is contemplated that this new form has good shelf life (kinetic trapping of the unstable form).

[6] = Differential scanning calorimetry of the new carbamazepine polymorph; type: physicochemical; details: scan rate of 10° C./minute

## CC(=O)Nc1ccc(O)cc1 [orthorhombic polymorph, 4-acetamidophenol]
[1]
  solubility relative to the monoclinic form: more soluble

## NC(=O)N1c2ccccc2C=Cc2ccccc21 [carbamazepine]
[2]
  elimination half-life of unchanged carbamazepine in the plasma: approximately 36 hours
[3]
  long-term toxicity finding: potential carcinogenic risk

## NC(=O)N1c2ccccc2C=Cc2ccccc21 [trigonal form, carbamazepine]
[4]
  solid form stability in solvent: undergoes solvent-mediated conversion to the monoclinic crystal

## NC(=O)N1c2ccccc2C=Cc2ccccc21 [new polymorph, carbamazepine]
[5]
  phase transformation under pressure: not taking place
[6]
  phase transitions by differential scanning calorimetry: absence of phase transitions below 184 °C
